Assay results: ChEMBL document CHEMBL4346705, “(±)-trans-Dihydronarciclasine and (±)-trans-dihydrolycoricidine analogues modified in their ring A: Evaluation of their anticancer activity and a SAR study” (2019)

Assays:
Type in all cases: functional
KM12 = test: Antiproliferative activity against human KM12 cells assessed as cell viability at 10^-5 M incubated for 48 hrs by sulforhodamine B assay relative to control; conditions: KM12, 48 h, read-out: Activity
UACC-257 = test: Antiproliferative activity against human UACC257 cells assessed as cell viability at 10^-5 M incubated for 48 hrs by sulforhodamine B assay relative to control; conditions: UACC-257, 48 h, read-out: Activity
T47D = test: Antiproliferative activity against human T47D cells assessed as cell viability at 10^-5 M incubated for 48 hrs by sulforhodamine B assay relative to control; conditions: read-out: Activity
SR = test: Antiproliferative activity against human SR cells assessed as cell viability at 10^-5 M incubated for 48 hrs by sulforhodamine B assay relative to control; conditions: read-out: Activity
HCT-116 = test: Antiproliferative activity against human HCT116 cells assessed as cell viability at 10^-5 M incubated for 48 hrs by sulforhodamine B assay relative to control; conditions: HCT-116, 48 h, read-out: Activity
SK-MEL-5 = test: Antiproliferative activity against human SK-MEL-5 cells assessed as cell viability at 10^-5 M incubated for 48 hrs by sulforhodamine B assay relative to control; conditions: SK-MEL-5, 48 h, read-out: Activity
NCI-H322M = test: Antiproliferative activity against human NCI-H322M cells assessed as cell viability at 10^-5 M incubated for 48 hrs by sulforhodamine B assay relative to control; conditions: read-out: Activity
MDA-MB-468 = test: Antiproliferative activity against human MDA-MB-468 cells assessed as cell viability at 10^-5 M incubated for 48 hrs by sulforhodamine B assay relative to control; conditions: MDA-MB-468, 48 h, read-out: Activity
NCI/ADR-RES = test: Antiproliferative activity against human NCI-ADR-RES cells assessed as cell viability at 10^-5 M incubated for 48 hrs by sulforhodamine B assay relative to control; conditions: read-out: Activity
NCI-H226 = test: Antiproliferative activity against human NCI-H226 cells assessed as cell viability at 10^-5 M incubated for 48 hrs by sulforhodamine B assay relative to control; conditions: NCI-H226, 48 h, read-out: Activity
LOX IMVI = test: Antiproliferative activity against human LOXIMVI cells assessed as cell viability at 10^-5 M incubated for 48 hrs by sulforhodamine B assay relative to control; conditions: read-out: Activity
OVCAR-3 = test: Antiproliferative activity against human OVCAR3 cells assessed as cell viability at 10^-5 M incubated for 48 hrs by sulforhodamine B assay relative to control; conditions: OVCAR-3, 48 h, read-out: Activity
SK-OV-3 = test: Antiproliferative activity against human SKOV3 cells assessed as cell viability at 10^-5 M incubated for 48 hrs by sulforhodamine B assay relative to control; conditions: SK-OV-3, 48 h, read-out: Activity
SF-295 = test: Antiproliferative activity against human SF295 cells assessed as cell viability at 10^-5 M incubated for 48 hrs by sulforhodamine B assay relative to control; conditions: SF-295, 48 h, read-out: Activity
M14 = test: Antiproliferative activity against human M14 cells assessed as cell viability at 10^-5 M incubated for 48 hrs by sulforhodamine B assay relative to control; conditions: M14, 48 h, read-out: Activity
OVCAR-5 = test: Antiproliferative activity against human OVCAR5 cells assessed as cell viability at 10^-5 M incubated for 48 hrs by sulforhodamine B assay relative to control; conditions: OVCAR-5, 48 h, read-out: Activity
COLO 205 = test: Antiproliferative activity against human COLO205 cells assessed as cell viability at 10^-5 M incubated for 48 hrs by sulforhodamine B assay relative to control; conditions: COLO 205, 48 h, read-out: Activity
RPMI-8226 = test: Antiproliferative activity against human RPMI8226 cells assessed as cell viability at 10^-5 M incubated for 48 hrs by sulforhodamine B assay relative to control; conditions: RPMI-8226, 48 h, read-out: Activity
NCI-H522 = test: Antiproliferative activity against human NCI-H522 cells assessed as cell viability at 10^-5 M incubated for 48 hrs by sulforhodamine B assay relative to control; conditions: NCI-H522, 48 h, read-out: Activity
A549 = test: Antiproliferative activity against human A549 cells assessed as cell viability at 10^-5 M incubated for 48 hrs by sulforhodamine B assay relative to control; conditions: A549, 48 h, read-out: Activity
HCC 2998 = test: Antiproliferative activity against human HCC2998 cells assessed as cell viability at 10^-5 M incubated for 48 hrs by sulforhodamine B assay relative to control; conditions: HCC 2998, 48 h, read-out: Activity
SN12C = test: Antiproliferative activity against human SN12C cells assessed as cell viability at 10^-5 M incubated for 48 hrs by sulforhodamine B assay relative to control; conditions: read-out: Activity
EKVX = test: Antiproliferative activity against human EKVX cells assessed as cell viability at 10^-5 M incubated for 48 hrs by sulforhodamine B assay relative to control; conditions: read-out: Activity
UO-31 = test: Antiproliferative activity against human UO31 cells assessed as cell viability at 10^-5 M incubated for 48 hrs by sulforhodamine B assay relative to control; conditions: UO-31, 48 h, read-out: Activity
PC-3 = test: Antiproliferative activity against human PC3 cells assessed as cell viability at 10^-5 M incubated for 48 hrs by sulforhodamine B assay relative to control; conditions: PC-3, 48 h, read-out: Activity
NCI-H23 = test: Antiproliferative activity against human NCI-H23 cells assessed as cell viability at 10^-5 M incubated for 48 hrs by sulforhodamine B assay relative to control; conditions: NCI-H23, 48 h, read-out: Activity
IGROV-1 = test: Antiproliferative activity against human IGROV1 cells assessed as cell viability at 10^-5 M incubated for 48 hrs by sulforhodamine B assay relative to control; conditions: IGROV-1, 48 h, read-out: Activity
SK-MEL-28 = test: Antiproliferative activity against human SK-MEL-28 cells assessed as cell viability at 10^-5 M incubated for 48 hrs by sulforhodamine B assay relative to control; conditions: SK-MEL-28, 48 h, read-out: Activity

Row | SMILES | viability at 10 µM (KM12) [%] | viability at 10 µM (UACC-257) [%] | viability at 10 µM (T47D) [%] | viability at 10 µM (SR) [%] | viability at 10 µM (HCT-116) [%] | viability at 10 µM (SK-MEL-5) [%] | viability at 10 µM (NCI-H322M) [%] | viability at 10 µM (MDA-MB-468) [%] | viability at 10 µM (NCI/ADR-RES) [%] | viability at 10 µM (NCI-H226) [%] | viability at 10 µM (LOX IMVI) [%] | viability at 10 µM (OVCAR-3) [%] | viability at 10 µM (SK-OV-3) [%] | viability at 10 µM (SF-295) [%] | viability at 10 µM (M14) [%] | viability at 10 µM (OVCAR-5) [%] | viability at 10 µM (COLO 205) [%] | viability at 10 µM (RPMI-8226) [%] | viability at 10 µM (NCI-H522) [%] | viability at 10 µM (A549) [%] | also measured
1 | O=C1NC2C(CC(O)C(O)C2O)c2cc3c(cc21)OCCO3 (racemic) | 108 | 107 | 104 | 107 | 95.5 | 102 | 104 | 107 | 107 | 97.7 | 97.8 | 111 | 103 | 101 | 98.9 | 107 | 111 | 107 | 101 | 109 | viability at 10 µM (HCC 2998): 109%; viability at 10 µM (SN12C): 105%; viability at 10 µM (EKVX): 97.4%; viability at 10 µM (UO-31): 93.2%; viability at 10 µM (PC-3): 103%; viability at 10 µM (NCI-H23): 107%; viability at 10 µM (IGROV-1): 103%
2 | CCOc1cc2c(c(O)c1OCC)C(=O)NC1C2CC(O)C(O)C1O (racemic) | 106 | 99.8 | 90.4 | 91.7 | 104 | 102 | 97.6 | 94.8 | 107 | 105 | 98.5 | 104 | 98.6 | 98.7 | 100 | 104 | 110 | 102 | 92.6 | 92.8 | viability at 10 µM (SK-MEL-28): 105%; viability at 10 µM (HCC 2998): 101%; viability at 10 µM (SN12C): 103%; viability at 10 µM (EKVX): 99.7%; viability at 10 µM (UO-31): 89.4%; viability at 10 µM (PC-3): 100%; viability at 10 µM (NCI-H23): 102%; viability at 10 µM (IGROV-1): 109%
3 | CCCOc1cc2c(cc1OCC)C1CC(O)C(O)C(O)C1NC2=O (racemic) | 108 | 104 | 105 | 116 | 101 | 100 | 104 | 112 | 105 | 99.6 | 96.7 | 112 | 109 | 102 | 103 | 105 | 110 | 104 | 96.7 | 107 | viability at 10 µM (HCC 2998): 106%; viability at 10 µM (SN12C): 112%; viability at 10 µM (EKVX): 104%; viability at 10 µM (UO-31): 88.9%; viability at 10 µM (PC-3): 97.1%; viability at 10 µM (NCI-H23): 108%; viability at 10 µM (IGROV-1): 103%
4 | CCOc1cc2c(cc1OCC)C1CC(O)C(O)C(O)C1NC2=O (racemic) | 104 | 97.5 | 90.2 | 91.2 | 96.3 | 99.6 | 95.2 | 94.2 | 101 | 97.8 | 92.8 | 107 | 95.9 | 94.9 | 99.1 | 101 | 106 | 102 | 89.5 | 101 | viability at 10 µM (SK-MEL-28): 110%; viability at 10 µM (HCC 2998): 106%; viability at 10 µM (SN12C): 100%; viability at 10 µM (EKVX): 102%; viability at 10 µM (UO-31): 76.4%; viability at 10 µM (PC-3): 92.8%; viability at 10 µM (NCI-H23): 96.1%; viability at 10 µM (IGROV-1): 107%
5 | CCOc1c(OC)cc2c(c1OCC)C(=O)NC1C2CC(O)C(O)C1O (racemic) | 102 | 103 | 106 | 90.3 | 100 | 99.8 | 98.6 | 98.1 | 109 | 97.4 | 97.6 | 103 | 105 | 98.7 | 99.1 | 108 | 113 | 106 | 88.9 | 94.2 | viability at 10 µM (SK-MEL-28): 108%; viability at 10 µM (HCC 2998): 104%; viability at 10 µM (SN12C): 101%; viability at 10 µM (EKVX): 97.5%; viability at 10 µM (UO-31): 81.8%; viability at 10 µM (PC-3): 93.3%; viability at 10 µM (NCI-H23): 99.9%; viability at 10 µM (IGROV-1): 103%
6 | COc1cc2c(c3c1OCCO3)C(=O)NC1C2CC(O)C(O)C1O (racemic) | 95 | 97.5 | 87.9 | 97.1 | 99.6 | 101 | 97.3 | 99.5 | 111 | 95.7 | 101 | 101 | 104 | 104 | 104 | 103 | 111 | 100 | 93 | 93.7 | viability at 10 µM (SK-MEL-28): 106%; viability at 10 µM (HCC 2998): 99.9%; viability at 10 µM (SN12C): 99.8%; viability at 10 µM (EKVX): 103%; viability at 10 µM (UO-31): 89.8%; viability at 10 µM (PC-3): 95.3%; viability at 10 µM (NCI-H23): 102%; viability at 10 µM (IGROV-1): 107%
7 | COc1c2c(cc3c1C(=O)NC1C3CC(O)C(O)C1O)OCCO2 (racemic) | 99.1 | 98.8 | 84.9 | 92.1 | 102 | 99 | 93.5 | 93.1 | 113 | 92.7 | 101 | 104 | 98.6 | 99.6 | 105 | 105 | 103 | 102 | 93.5 | 96.5 | viability at 10 µM (SK-MEL-28): 106%; viability at 10 µM (HCC 2998): 106%; viability at 10 µM (SN12C): 103%; viability at 10 µM (EKVX): 98.2%; viability at 10 µM (UO-31): 86.4%; viability at 10 µM (PC-3): 97.7%; viability at 10 µM (NCI-H23): 104%; viability at 10 µM (IGROV-1): 109%
